According to ChEMBL document CHEMBL1909046, “DrugMatrix in vitro pharmacology data”:

Assays:
[1] = target: T1, Alpha-1D adrenergic receptor (Homo sapiens, UniProt P25100); format: cell membranes, HEK293, Membrane; conditions: for Ki: read-out: Ki; for all read-outs here: in other assays of this panel Not Active means under 50% inhibition at 10 µM
T1 sequence (P25100 whole entry): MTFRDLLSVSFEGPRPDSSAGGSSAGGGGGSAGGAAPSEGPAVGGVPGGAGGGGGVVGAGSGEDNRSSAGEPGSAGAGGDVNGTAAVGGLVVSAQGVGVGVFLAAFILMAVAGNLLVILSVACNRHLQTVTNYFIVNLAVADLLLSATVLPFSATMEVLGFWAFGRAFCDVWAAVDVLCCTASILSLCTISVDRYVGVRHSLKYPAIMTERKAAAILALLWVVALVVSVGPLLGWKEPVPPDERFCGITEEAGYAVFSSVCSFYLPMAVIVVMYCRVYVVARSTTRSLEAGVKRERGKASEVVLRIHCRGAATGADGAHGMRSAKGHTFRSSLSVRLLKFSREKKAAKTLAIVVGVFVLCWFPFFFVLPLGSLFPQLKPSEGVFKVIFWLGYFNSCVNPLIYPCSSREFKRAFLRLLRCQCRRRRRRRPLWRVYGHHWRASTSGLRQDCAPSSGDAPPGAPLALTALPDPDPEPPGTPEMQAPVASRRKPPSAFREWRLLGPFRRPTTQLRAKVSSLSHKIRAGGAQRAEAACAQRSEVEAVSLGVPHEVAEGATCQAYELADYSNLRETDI

[2] = target: 5-hydroxytryptamine receptor 6 (Homo sapiens, UniProt P50406); format: cell membranes, HeLa, Membrane; conditions: for Ki: read-out: Ki; for all read-outs here: in other assays of this panel Not Active means under 50% inhibition at 10 µM
D(4) dopamine receptor = target: T2, D(4) dopamine receptor (Homo sapiens, UniProt P21917); assay: DRUGMATRIX: Dopamine D4.2 radioligand binding (ligand: [3H] Spiperone); format: cell membranes, CHO-K1, Membrane; conditions: cho-k1; Not Active = under 50% inhibition at 10 µM
T2 sequence (P21917 whole entry): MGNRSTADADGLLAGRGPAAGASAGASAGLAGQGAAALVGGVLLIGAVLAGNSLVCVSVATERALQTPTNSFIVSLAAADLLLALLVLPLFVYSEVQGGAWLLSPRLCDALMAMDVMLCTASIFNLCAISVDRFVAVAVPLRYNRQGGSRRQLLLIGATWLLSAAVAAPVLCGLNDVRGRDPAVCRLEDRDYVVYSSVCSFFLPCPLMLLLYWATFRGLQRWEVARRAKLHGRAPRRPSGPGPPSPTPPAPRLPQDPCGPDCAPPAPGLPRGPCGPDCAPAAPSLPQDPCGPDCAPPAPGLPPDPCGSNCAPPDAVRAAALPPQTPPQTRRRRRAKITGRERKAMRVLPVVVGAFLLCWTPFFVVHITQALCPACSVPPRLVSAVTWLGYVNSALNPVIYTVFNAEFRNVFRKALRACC

[3] = target: T3, Angiotensin-converting enzyme (Oryctolagus cuniculus, UniProt P12822); format: tissue-based, Lung;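 note: enzymatic inhibition of angiotensin-converting enzyme measured with FAPGG as the substrate; in other assays of this panel Not Active means under 50% inhibition at 10 µM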
T3 sequence (P12822 whole entry): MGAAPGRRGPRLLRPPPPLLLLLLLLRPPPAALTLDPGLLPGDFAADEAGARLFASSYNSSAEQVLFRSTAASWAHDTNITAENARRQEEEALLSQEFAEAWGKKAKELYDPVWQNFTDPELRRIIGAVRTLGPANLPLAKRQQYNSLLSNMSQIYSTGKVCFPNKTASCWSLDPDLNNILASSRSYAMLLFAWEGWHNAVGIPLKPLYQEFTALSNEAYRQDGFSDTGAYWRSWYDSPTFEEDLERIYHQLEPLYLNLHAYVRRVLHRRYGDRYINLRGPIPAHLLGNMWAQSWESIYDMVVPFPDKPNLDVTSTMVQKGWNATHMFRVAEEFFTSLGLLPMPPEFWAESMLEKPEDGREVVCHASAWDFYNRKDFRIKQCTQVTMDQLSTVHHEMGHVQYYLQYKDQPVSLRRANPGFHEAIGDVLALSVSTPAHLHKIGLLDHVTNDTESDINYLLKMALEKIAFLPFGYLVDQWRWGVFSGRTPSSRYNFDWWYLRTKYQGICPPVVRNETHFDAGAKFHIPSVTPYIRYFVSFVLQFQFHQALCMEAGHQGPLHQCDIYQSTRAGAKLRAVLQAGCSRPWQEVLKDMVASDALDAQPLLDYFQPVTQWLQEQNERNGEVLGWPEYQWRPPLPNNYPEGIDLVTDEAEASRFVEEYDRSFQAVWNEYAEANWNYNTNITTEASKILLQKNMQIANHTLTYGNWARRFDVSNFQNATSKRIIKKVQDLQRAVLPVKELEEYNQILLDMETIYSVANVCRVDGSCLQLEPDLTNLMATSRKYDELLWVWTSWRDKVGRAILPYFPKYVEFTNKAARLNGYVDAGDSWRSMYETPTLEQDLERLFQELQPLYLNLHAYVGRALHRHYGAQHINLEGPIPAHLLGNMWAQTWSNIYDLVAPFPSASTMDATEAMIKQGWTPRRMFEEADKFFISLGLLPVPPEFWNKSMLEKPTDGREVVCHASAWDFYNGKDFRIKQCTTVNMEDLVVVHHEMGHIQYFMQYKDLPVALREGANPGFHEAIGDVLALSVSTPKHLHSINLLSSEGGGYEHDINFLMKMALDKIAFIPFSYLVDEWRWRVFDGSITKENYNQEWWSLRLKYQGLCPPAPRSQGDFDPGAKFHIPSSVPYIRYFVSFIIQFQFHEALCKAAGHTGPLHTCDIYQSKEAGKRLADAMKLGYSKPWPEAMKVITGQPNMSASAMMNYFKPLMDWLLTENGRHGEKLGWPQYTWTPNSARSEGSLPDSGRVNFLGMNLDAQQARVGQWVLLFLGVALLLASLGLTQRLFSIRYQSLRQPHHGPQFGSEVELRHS

Cytochrome P450 1A2 = target: T4, Cytochrome P450 1A2 (Homo sapiens, UniProt P05177); conditions: bti-tn-5b1-4; note: in other assays of this panel Not Active means under 50% inhibition at 10 µM
T4 sequence (P05177 whole entry): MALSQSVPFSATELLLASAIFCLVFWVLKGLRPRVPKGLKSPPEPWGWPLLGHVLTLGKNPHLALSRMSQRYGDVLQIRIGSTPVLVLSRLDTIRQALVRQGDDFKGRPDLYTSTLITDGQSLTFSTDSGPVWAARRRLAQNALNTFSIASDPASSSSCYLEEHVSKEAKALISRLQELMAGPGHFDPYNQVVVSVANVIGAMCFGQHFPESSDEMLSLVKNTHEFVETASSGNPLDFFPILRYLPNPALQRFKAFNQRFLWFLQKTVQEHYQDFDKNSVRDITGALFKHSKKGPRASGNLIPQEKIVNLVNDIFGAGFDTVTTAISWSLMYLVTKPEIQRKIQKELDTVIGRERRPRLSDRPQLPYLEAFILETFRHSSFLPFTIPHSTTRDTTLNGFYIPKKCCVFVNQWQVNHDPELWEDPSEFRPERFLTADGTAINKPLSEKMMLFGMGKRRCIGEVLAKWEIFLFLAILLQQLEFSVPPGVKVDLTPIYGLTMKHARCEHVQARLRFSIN

Chain of 5-hydroxytryptamine receptor 6 (P50406 whole entry): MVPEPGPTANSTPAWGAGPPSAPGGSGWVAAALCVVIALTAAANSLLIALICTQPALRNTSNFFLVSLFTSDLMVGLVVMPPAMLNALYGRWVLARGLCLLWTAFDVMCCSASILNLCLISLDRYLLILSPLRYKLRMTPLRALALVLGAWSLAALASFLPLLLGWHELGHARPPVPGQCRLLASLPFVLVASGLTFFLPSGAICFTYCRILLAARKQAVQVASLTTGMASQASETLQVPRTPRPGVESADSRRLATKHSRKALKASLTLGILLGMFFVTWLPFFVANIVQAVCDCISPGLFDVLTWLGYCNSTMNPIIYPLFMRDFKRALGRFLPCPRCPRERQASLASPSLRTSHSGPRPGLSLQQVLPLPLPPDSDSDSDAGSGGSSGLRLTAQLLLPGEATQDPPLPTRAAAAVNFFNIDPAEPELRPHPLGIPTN

Row | SMILES | IC50 ([1]; hek293) | IC50 ([2]; hela) | IC50 (D(4) dopamine receptor) | IC50 [3] | IC50 (Cytochrome P450 1A2) | Ki (Cytochrome P450 1A2) | IC50 ([1]; read-out: IC50) | Ki [1] | IC50 ([2]; read-out: IC50) | Ki [2]
1 | CNCCCN1c2ccccc2CCc2ccccc21 [DESIPRAMINE] | Not Active | Not Active | Not Active | Not Active | Not Active | Not Active | – | – | – | –
2 | O=c1oc2ccccc2c(O)c1Cc1c(O)c2ccccc2oc1=O [DICUMAROL] | Not Active | Not Active | Not Active | Not Active | Not Active | Not Active | – | – | – | –
3 | C[C@H]1O[C@@H](O[C@H]2[C@@H](O)C[C@H](O[C@H]3[C@@H](O)C[C@H](O[C@H]4CC[C@@]5(C)[C@H](CC[C@@H]6[C@@H]5C[C@@H](O)[C@]5(C)[C@@H](C7=CC(=O)OC7)CC[C@]65O)C4)O[C@@H]3C)O[C@@H]2C)C[C@H](O)[C@@H]1O [DIGOXIN] | Not Active | Not Active | Not Active | Not Active | Not Active | Not Active | – | – | – | –
4 | CC(C)[C@@]1(NC(=O)[C@@H]2C[C@@H]3c4cccc5[nH]cc(c45)C[C@H]3N(C)C2)O[C@@]2(O)[C@@H]3CCCN3C(=O)[C@H](Cc3ccccc3)N2C1=O.CS(=O)(=O)O [DIHYDROERGOCRISTINE MESYLATE] | – | – | Not Active | Not Active | Not Active | Not Active | 7.37 nM | 3.62 nM | 42 nM | 19 nM
5 | CC(=O)O[C@@]12CO[C@@H]1C[C@H](O)[C@@]1(C)C(=O)[C@H](O)C3=C(C)[C@@H](OC(=O)[C@H](O)[C@@H](NC(=O)OC(C)(C)C)c4ccccc4)C[C@@](O)([C@@H](OC(=O)c4ccccc4)[C@H]21)C3(C)C.O.O.O [DOCETAXEL] | Not Active | Not Active | Not Active | Not Active | Not Active | Not Active | – | – | – | –
6 | C[C@H]1c2cccc(O)c2C(=O)C2=C(O)[C@]3(O)C(=O)C(C(N)=O)=C(O)[C@@H](N(C)C)[C@@H]3[C@@H](O)[C@@H]21.O [DOXYCYCLINE] | Not Active | Not Active | Not Active | Not Active | Not Active | Not Active | – | – | – | –
7 | O=C(CCCN1CC=C(n2c(=O)[nH]c3ccccc32)CC1)c1ccc(F)cc1 [DROPERIDOL] | – | Not Active | Not Active | Not Active | Not Active | Not Active | 83 nM | 41 nM | – | –
8 | CC(C)[C@H]1C(=O)N2CCC[C@H]2[C@]2(O)O[C@](NC(=O)[C@@H]3C=C4c5cccc6[nH]cc(c56)C[C@H]4N(C)C3)(C(C)C)C(=O)N12 [ERGOCORNINE] | – | – | Not Active | Not Active | Not Active | Not Active | 18 nM | 8.75 nM | 15 nM | 7.09 nM
9 | OC(Cn1cncn1)(Cn1cncn1)c1ccc(F)cc1F [FLUCONAZOLE] | Not Active | Not Active | Not Active | Not Active | Not Active | Not Active | – | – | – | –
10 | CC(C)C(=O)Nc1ccc([N+](=O)[O-])c(C(F)(F)F)c1 [FLUTAMIDE] | Not Active | – | Not Active | Not Active | Not Active | Not Active | – | – | 17800 nM | 8270 nM
11 | CC1(C)O[C@@H]2C[C@H]3[C@@H]4CCC5=CC(=O)CC[C@]5(C)[C@@]4(F)[C@@H](O)C[C@]3(C)[C@]2(C(=O)CCl)O1 [HALCINONIDE] | Not Active | Not Active | Not Active | Not Active | Not Active | Not Active | – | – | – | –
12 | O=c1[nH]c(=O)n([C@H]2C[C@H](O)[C@@H](CO)O2)cc1I [IDOXURIDINE] | Not Active | Not Active | Not Active | Not Active | Not Active | Not Active | – | – | – | –
13 | CC1Cc2ccccc2N1NC(=O)c1ccc(Cl)c(S(N)(=O)=O)c1 (stereo not given) [INDAPAMIDE] | Not Active | Not Active | Not Active | Not Active | Not Active | Not Active | – | – | – | –
14 | Nc1nc(N)nc(-c2cc(Cl)ccc2Cl)n1.O=C(O)/C=C\C(=O)O [IRSOGLADINE MALEATE] | Not Active | Not Active | Not Active | Not Active | Not Active | Not Active | – | – | – | –
15 | CCC(C)n1ncn(-c2ccc(N3CCN(c4ccc(OCC5COC(Cn6cncn6)(c6ccc(Cl)cc6Cl)O5)cc4)CC3)cc2)c1=O (stereo not given) [ITRACONAZOLE] | Not Active | Not Active | Not Active | Not Active | Not Active | Not Active | – | – | – | –
16 | CCCCN1CCCC[C@H]1C(=O)Nc1c(C)cccc1C [LEVOBUPIVACAINE] | Not Active | Not Active | Not Active | Not Active | Not Active | Not Active | – | – | – | –
17 | CCCCc1nc(Cl)c(CO)n1Cc1ccc(-c2ccccc2-c2nnn[nH]2)cc1 [LOSARTAN] | Not Active | Not Active | Not Active | Not Active | Not Active | Not Active | – | – | – | –
18 | Sc1ncnc2nc[nH]c12 [MERCAPTOPURINE ANHYDROUS] | Not Active | Not Active | Not Active | Not Active | Not Active | Not Active | – | – | – | –
19 | C[C@](N)(Cc1ccc(O)c(O)c1)C(=O)O [METHYLDOPA] | Not Active | Not Active | Not Active | Not Active | Not Active | Not Active | – | – | – | –
